Test results: PubChem BioAssay AID248 (DTP/NCI, 2004)
Where “and” joins values, the source holds several entries; their conditions need not be identical. Identical values can stand only once. Toxic doses and inconclusive results are not listed.

Test system: L1210 leukemia ip in BDF1 mice, survival T/C
Assay: NCI In Vivo Anticancer Drug Screen. Data for tumor model L1210 Leukemia (intraperitoneal) in B6D2F1 (BDF1) mice
Details: higher = longer survival
How it was run: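 Antitumor effect is assessed in tumor-bearing animals. Survival in the compound arm is compared with a vehicle-dosed control arm and expressed as their quotient.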

[1] = endpoint: mean survival time, dose: 100.0 mg/kg/injection, schedule: Q01DX001 (ip), vehicle: saline

In the case of `COc1cc2cc[n+]3c(C)c4cc5c(cc4cc3c2cc1OC)OCO5` (tested in a mixture with another compound), the T/C (endpoint: mean survival time, dose: 2.5 mg/kg/injection, schedule: Q01DX009 (ip), vehicle: saline) was 109 % of control, the T/C (endpoint: mean survival time, dose: 5.0 mg/kg/injection, schedule: Q01DX009 (ip), vehicle: saline) was 103 % of control and the T/C (endpoint: mean survival time, dose: 50.0 mg/kg/injection, schedule: Q01DX009 (ip), vehicle: saline) was 97 % of control.

For `CCOP(=S)(N1CC1)N1CC1`, the T/C (endpoint: mean survival time, dose: 100.0 mg/kg/injection, schedule: Q01DX001 (ip), vehicle: carboxymethylcellulose (CMC)) was 95 % of control, the T/C (endpoint: mean survival time, dose: 200.0 mg/kg/injection, schedule: Q01DX001 (ip), vehicle: carboxymethylcellulose (CMC)) was 95 % of control and the T/C (endpoint: mean survival time, dose: 400.0 mg/kg/injection, schedule: Q01DX001 (ip), vehicle: carboxymethylcellulose (CMC)) was 94 % of control.

For `COc1cc([C@@H]2c3cc4c(cc3[C@@H](OC3OC5COC(C)OC5C(O)C3O)[C@H]3COC(=O)[C@H]23)OCO4)cc(OC)c1O` (some centres not stated), the T/C (endpoint: mean survival time, dose: 1.8 mg/kg/injection, schedule: Q03HX016 (ip), vehicle: saline) was 292 % of control, the T/C (endpoint: mean survival time, dose: 1.8 mg/kg/injection, schedule: Q03HX024 (ip), vehicle: saline) was 315 % of control and the T/C (endpoint: mean survival time, dose: 2.0 mg/kg/injection, schedule: Q01DX009 (ip), vehicle: Klucel (hydroxypropylcellulose) (HPC)) was 161 % of control and 172 % of control. For the same compound, the T/C (endpoint: mean survival time, dose: 2.7 mg/kg/injection, schedule: Q03HX016 (ip), vehicle: saline) was 510 % of control, the T/C (endpoint: mean survival time, dose: 2.7 mg/kg/injection, schedule: Q03HX024 (ip), vehicle: saline) was 600 % of control and the T/C (endpoint: mean survival time, dose: 4.0 mg/kg/injection, schedule: Q01DX001 (sc), vehicle: Klucel (hydroxypropylcellulose) (HPC)) was 97 % of control. The T/C (endpoint: mean survival time, dose: 4.0 mg/kg/injection, schedule: Q01DX001 (sc), vehicle: clinical formulation) was 102 % of control, the T/C (endpoint: mean survival time, dose: 4.0 mg/kg/injection, schedule: Q01DX009 (ip), vehicle: Klucel (hydroxypropylcellulose) (HPC)) was 104 % of control and 196 % of control and 266 % of control and the T/C (endpoint: mean survival time, dose: 4.0 mg/kg/injection, schedule: Q01DX009 (sc), vehicle: clinical formulation) was 183 % of control. For the same compound, the T/C (endpoint: mean survival time, dose: 4.0 mg/kg/injection, schedule: Q03HX016 (ip), vehicle: saline) was 409 % of control, the T/C (endpoint: mean survival time, dose: 4.0 mg/kg/injection, schedule: Q03HX016 (oral), vehicle: Klucel (hydroxypropylcellulose) (HPC)) was 105 % of control and the T/C (endpoint: mean survival time, dose: 4.0 mg/kg/injection, schedule: Q03HX024 (ip), vehicle: saline) was 568 % of control. For the same compound, the T/C (endpoint: mean survival time, dose: 4.5 mg/kg/injection, schedule: Q03HX024 (ip), vehicle: saline) was 409 % of control, the T/C (endpoint: mean survival time, dose: 6.0 mg/kg/injection, schedule: Q03HX016 (ip), vehicle: saline) was 154 % of control and the T/C (endpoint: mean survival time, dose: 8.0 mg/kg/injection, schedule: Q01DX001 (sc), vehicle: Klucel (hydroxypropylcellulose) (HPC)) was 103 % of control. For the same compound, the T/C (endpoint: mean survival time, dose: 8.0 mg/kg/injection, schedule: Q01DX001 (sc), vehicle: clinical formulation) was 106 % of control, the T/C (endpoint: mean survival time, dose: 8.0 mg/kg/injection, schedule: Q01DX009 (sc), vehicle: clinical formulation) was 180 % of control and the T/C (endpoint: mean survival time, dose: 8.0 mg/kg/injection, schedule: Q03HX016 (oral), vehicle: Klucel (hydroxypropylcellulose) (HPC)) was 105 % of control. The T/C (endpoint: mean survival time, dose: 8.0 mg/kg/injection, schedule: Q04DX003 (ip), vehicle: Klucel (hydroxypropylcellulose) (HPC)) was 225 % of control, the T/C (endpoint: mean survival time, dose: 12.0 mg/kg/injection, schedule: Q03DX003 (ip), vehicle: saline) was 319 % of control and the T/C (endpoint: mean survival time, dose: 12.0 mg/kg/injection, schedule: Q04DX003 (ip), vehicle: saline) was 213 % of control. For the same compound, the T/C (endpoint: mean survival time, dose: 16.0 mg/kg/injection, schedule: Q01DX001 (sc), vehicle: Klucel (hydroxypropylcellulose) (HPC)) was 106 % of control, the T/C (endpoint: mean survival time, dose: 16.0 mg/kg/injection, schedule: Q01DX001 (sc), vehicle: clinical formulation) was 117 % of control and the T/C (endpoint: mean survival time, dose: 16.0 mg/kg/injection, schedule: Q01DX009 (sc), vehicle: Klucel (hydroxypropylcellulose) (HPC)) was 208 % of control. The T/C (endpoint: mean survival time, dose: 16.0 mg/kg/injection, schedule: Q01DX009 (sc), vehicle: clinical formulation) was 187 % of control, the T/C (endpoint: mean survival time, dose: 16.0 mg/kg/injection, schedule: Q03HX016 (oral), vehicle: Klucel (hydroxypropylcellulose) (HPC)) was 105 % of control and the T/C (endpoint: mean survival time, dose: 16.0 mg/kg/injection, schedule: Q08DX002 (ip), vehicle: Klucel (hydroxypropylcellulose) (HPC)) was 157 % of control. The T/C (endpoint: mean survival time, dose: 18.0 mg/kg/injection, schedule: Q03DX003 (ip), vehicle: saline) was 395 % of control, the T/C (endpoint: mean survival time, dose: 18.0 mg/kg/injection, schedule: Q04DX003 (ip), vehicle: saline) was 372 % of control and the T/C (endpoint: mean survival time, dose: 27.0 mg/kg/injection, schedule: Q03DX003 (ip), vehicle: saline) was 552 % of control. For the same compound, the T/C (endpoint: mean survival time, dose: 27.0 mg/kg/injection, schedule: Q04DX003 (ip), vehicle: saline) was 506 % of control, the T/C (endpoint: mean survival time, dose: 32.0 mg/kg/injection, schedule: Q01DX001 (sc), vehicle: Klucel (hydroxypropylcellulose) (HPC)) was 115 % of control and the T/C (endpoint: mean survival time, dose: 32.0 mg/kg/injection, schedule: Q01DX009 (oral), vehicle: Klucel (hydroxypropylcellulose) (HPC)) was 109 % of control. For the same compound, the T/C (endpoint: mean survival time, dose: 32.0 mg/kg/injection, schedule: Q03HX016 (oral), vehicle: Klucel (hydroxypropylcellulose) (HPC)) was 119 % of control, the T/C (endpoint: mean survival time, dose: 32.0 mg/kg/injection, schedule: Q04DX003 (oral), vehicle: Klucel (hydroxypropylcellulose) (HPC)) was 109 % of control and the T/C (endpoint: mean survival time, dose: 32.0 mg/kg/injection, schedule: Q08DX002 (ip), vehicle: Klucel (hydroxypropylcellulose) (HPC)) was 338 % of control. The T/C (endpoint: mean survival time, dose: 40.0 mg/kg/injection, schedule: Q03DX003 (ip), vehicle: saline) was 562 % of control, the T/C (endpoint: mean survival time, dose: 40.0 mg/kg/injection, schedule: Q04DX003 (ip), vehicle: saline) was 584 % of control and the T/C (endpoint: mean survival time, dose: 50.0 mg/kg/injection, schedule: Q01DX001 (ip), vehicle: Klucel (hydroxypropylcellulose) (HPC)) was 276 % of control. For the same compound, the T/C (endpoint: mean survival time, dose: 50.0 mg/kg/injection, schedule: Q01DX001 (ip), vehicle: saline) was 116 % of control, the T/C (endpoint: mean survival time, dose: 60.0 mg/kg/injection, schedule: Q03DX003 (ip), vehicle: saline) was 86 % of control and the T/C (endpoint: mean survival time, dose: 64.0 mg/kg/injection, schedule: Q01DX001 (oral), vehicle: Klucel (hydroxypropylcellulose) (HPC)) was 103 % of control. For the same compound, the T/C (endpoint: mean survival time, dose: 64.0 mg/kg/injection, schedule: Q01DX001 (sc), vehicle: clinical formulation) was 120 % of control, the T/C (endpoint: mean survival time, dose: 64.0 mg/kg/injection, schedule: Q03HX016 (oral), vehicle: Klucel (hydroxypropylcellulose) (HPC)) was 108 % of control and the T/C (endpoint: mean survival time, dose: 64.0 mg/kg/injection, schedule: Q04DX003 (oral), vehicle: Klucel (hydroxypropylcellulose) (HPC)) was 123 % of control. The T/C (endpoint: mean survival time, dose: 64.0 mg/kg/injection, schedule: Q08DX002 (ip), vehicle: Klucel (hydroxypropylcellulose) (HPC)) was 417 % of control, the T/C (endpoint: mean survival time, dose: 100.0 mg/kg/injection, schedule: Q01DX001 (ip), vehicle: Klucel (hydroxypropylcellulose) (HPC)) was 448 % of control and the T/C [1] was 176 % of control. The T/C (endpoint: mean survival time, dose: 128.0 mg/kg/injection, schedule: Q01DX001 (oral), vehicle: Klucel (hydroxypropylcellulose) (HPC)) was 104 % of control and 106 % of control, the T/C (endpoint: mean survival time, dose: 128.0 mg/kg/injection, schedule: Q01DX001 (oral), vehicle: clinical formulation) was 109 % of control and the T/C (endpoint: mean survival time, dose: 128.0 mg/kg/injection, schedule: Q03HX016 (oral), vehicle: Klucel (hydroxypropylcellulose) (HPC)) was 118 % of control. For the same compound, the T/C (endpoint: mean survival time, dose: 128.0 mg/kg/injection, schedule: Q08DX002 (ip), vehicle: Klucel (hydroxypropylcellulose) (HPC)) was 119 % of control, the T/C (endpoint: mean survival time, dose: 256.0 mg/kg/injection, schedule: Q01DX001 (oral), vehicle: Klucel (hydroxypropylcellulose) (HPC)) was 104 % of control and 110 % of control and the T/C (endpoint: mean survival time, dose: 256.0 mg/kg/injection, schedule: Q01DX001 (oral), vehicle: clinical formulation) was 106 % of control. For the same compound, the T/C (endpoint: mean survival time, dose: 256.0 mg/kg/injection, schedule: Q01DX001 (sc), vehicle: Klucel (hydroxypropylcellulose) (HPC)) was 166 % of control, the T/C (endpoint: mean survival time, dose: 256.0 mg/kg/injection, schedule: Q01DX001 (sc), vehicle: clinical formulation) was 188 % of control and the T/C (endpoint: mean survival time, dose: 256.0 mg/kg/injection, schedule: Q01DX009 (oral), vehicle: Klucel (hydroxypropylcellulose) (HPC)) was 103 % of control. The T/C (endpoint: mean survival time, dose: 512.0 mg/kg/injection, schedule: Q01DX001 (oral), vehicle: Klucel (hydroxypropylcellulose) (HPC)) was 106 % of control and 118 % of control, the T/C (endpoint: mean survival time, dose: 512.0 mg/kg/injection, schedule: Q01DX001 (oral), vehicle: clinical formulation) was 165 % of control and the T/C (endpoint: mean survival time, dose: 512.0 mg/kg/injection, schedule: Q01DX009 (oral), vehicle: Klucel (hydroxypropylcellulose) (HPC)) was 91 % of control. For the same compound, the T/C (endpoint: mean survival time, dose: 1024.0 mg/kg/injection, schedule: Q01DX001 (oral), vehicle: Klucel (hydroxypropylcellulose) (HPC)) was 111 % of control, the T/C (endpoint: median survival time, dose: 2.0 mg/kg/injection, schedule: Q01DX009 (ip), vehicle: saline) was 172 % of control and the T/C (endpoint: median survival time, dose: 2.0 mg/kg/injection, schedule: Q01DX009 (sc), vehicle: Klucel (hydroxypropylcellulose) (HPC)) was 121 % of control. For the same compound, the T/C (endpoint: median survival time, dose: 4.0 mg/kg/injection, schedule: Q01DX009 (ip), vehicle: saline) was 188 % of control, the T/C (endpoint: median survival time, dose: 8.0 mg/kg/injection, schedule: Q01DX009 (ip), vehicle: saline) was 611 % of control and the T/C (endpoint: median survival time, dose: 8.0 mg/kg/injection, schedule: Q01DX009 (sc), vehicle: Klucel (hydroxypropylcellulose) (HPC)) was 168 % of control. The T/C (endpoint: median survival time, dose: 16.0 mg/kg/injection, schedule: Q01DX009 (sc), vehicle: Klucel (hydroxypropylcellulose) (HPC)) was 110 % of control and the T/C (endpoint: median survival time, dose: 32.0 mg/kg/injection, schedule: Q01DX009 (sc), vehicle: Klucel (hydroxypropylcellulose) (HPC)) was 89 % of control.

For `CCOc1nc(OCC)c2[nH]cnc2n1`, the T/C [1] was 101 % of control, the T/C (endpoint: mean survival time, dose: 200.0 mg/kg/injection, schedule: Q01DX001 (ip), vehicle: saline) was 96 % of control and the T/C (endpoint: mean survival time, dose: 400.0 mg/kg/injection, schedule: Q01DX001 (ip), vehicle: saline) was 102 % of control.
